The results in this text go back to patent publication US11478515B2, “Compositions comprising probiotic and prebiotic components and mineral salts, with lactoferrin” (GlaxoSmithKline Consumer Healthcare S.R.L., priority 2009, dated 2022).

Where a SMILES comes first, the peptide text is derived from it. Bridges are numbered along the chain shown (N, C = ends). [ ]: non-standard residue; d: D form. The star is where a group is joined. Ileψ(thiazoline)Cys = CC[C@H](C)[C@H](N)C1=N[C@H](C(=O)*)CS1; dOrn = NCCC[C@@H](N)C(=O)O

The assay has as its system Bifidobacterium longum R175. Nature of the assay: antibiotic resistance profile. It is filed as cell-based. Conditions: dose of each agent.
Take `CC1(C)S[C@@H]2[C@H](NC(=O)[C@H](N)c3ccccc3)C(=O)N2[C@H]1C(=O)O` [Ampicillin]: the “outcome (antibiotic resistance profile)” value was “susceptible”. The entry for `CC[C@H](C)[C@H](N)C1=N[C@H](C(=O)N[C@@H](CC(C)C)C(=O)N[C@H](CCC(=O)O)C(=O)N[C@H](C(=O)N[C@H]2CCCCNC(=O)[C@H](CC(N)=O)NC(=O)[C@@H](CC(=O)O)NC(=O)[C@H](Cc3cnc[nH]3)NC(=O)[C@@H](Cc3ccccc3)NC(=O)[C@H]([C@@H](C)CC)NC(=O)[C@@H](CCCN)NC2=O)[C@@H](C)CC)CS1` [Bacitracin] ({Ileψ(thiazoline)Cys}-L[dE]IK[dOrn]I[dF]H[dD]N; lactam 4-C) is “susceptible”; for `CO[C@H]1/C=C/O[C@@]2(C)Oc3c(C)c(O)c4c(O)c(c(/C=N/N5CCN(C)CC5)c(O)c4c3C2=O)NC(=O)/C(C)=C\C=C\[C@H](C)[C@H](O)[C@@H](C)[C@@H](O)[C@@H](C)[C@H](OC(C)=O)[C@@H]1C` [Rifampin] it is “susceptible”. For the molecule `CN[C@H](CC(C)C)C(=O)N[C@H]1C(=O)N[C@@H](CC(N)=O)C(=O)N[C@H]2C(=O)N[C@H]3C(=O)N[C@H](C(=O)N[C@H](C(=O)O)c4cc(O)cc(O)c4-c4cc3ccc4O)[C@H](O)c3ccc(c(Cl)c3)Oc3cc2cc(c3O[C@@H]2O[C@H](CO)[C@@H](O)[C@H](O)[C@H]2O[C@H]2C[C@](C)(N)[C@H](O)[C@H](C)O2)Oc2ccc(cc2Cl)[C@H]1O` [Vancomycin], the “outcome (antibiotic resistance profile)” value is given as “susceptible”.

In the case of `CC(=O)OCC1=C(C(=O)O)N2C(=O)[C@@H](NC(=O)Cc3cccs3)[C@H]2SC1` [cephalothin], the “outcome (antibiotic resistance profile)” value was “susceptible”. On to `O=C(N[C@H](CO)[C@H](O)c1ccc([N+](=O)[O-])cc1)C(Cl)Cl` [chloramphenicol], for which the “outcome (antibiotic resistance profile)” value is on record as “susceptible”. Next, `CC[C@H]1OC(=O)[C@H](C)[C@@H](O[C@H]2C[C@@](C)(OC)[C@@H](O)[C@H](C)O2)[C@H](C)[C@@H](O[C@@H]2O[C@H](C)C[C@H](N(C)C)[C@H]2O)[C@](C)(O)C[C@@H](C)C(=O)[C@H](C)[C@@H](O)[C@]1(C)O` [erythromycin]: “susceptible”. Next, `CCC[C@@H]1C[C@@H](C(=O)N[C@@H]([C@H]2O[C@H](SC)[C@H](O)[C@@H](O)[C@H]2O)[C@@H](C)O)N(C)C1` [lincomycin]: “intermediate”; `CO[C@@H]1[C@@H](OC(N)=O)[C@@H](O)[C@H](Oc2ccc3c(O)c(NC(=O)c4ccc(O)c(CC=C(C)C)c4)c(=O)oc3c2C)OC1(C)C` [novobiocin]: “susceptible”; `CC1(C)S[C@@H]2[C@H](NC(=O)Cc3ccccc3)C(=O)N2[C@H]1C(=O)O` [penicillin G]: “susceptible”. Next, `[H]/N=C(/N)N[C@H]1[C@H](O)[C@@H](O)[C@H](O[C@@H]2O[C@@H](C)[C@](O)(C=O)[C@H]2O[C@@H]2O[C@@H](CO)[C@H](O)[C@@H](O)[C@@H]2NC)[C@@H](N/C(N)=N\[H])[C@@H]1O` [streptomycin]: “resistant”; `Cc1noc(NS(=O)(=O)c2ccc(N)cc2)c1C` [sulfisoxazole]: “resistant”. As for Neomycin, the “outcome (antibiotic resistance profile)” value was “resistant”. Next, Polymyxin B: “resistant”. Next, gentamycin: “resistant”.
